In PMC5752149 (European journal of medicinal chemistry, 2017):

Legend:
[1] = target: T1, EphA2 receptor (Homo sapiens, UniProt P29317); experiment: EphA2 phosphorylation in EphA2-overexpressing MDA-MB-231 cells; assay type: cell-based
[2] = target: T1, EphA2 receptor; experiment: EphA2 phosphorylation and internalization in MDA-MB-231 cells; assay type: cell-based

T1 sequence (P29317 24-976): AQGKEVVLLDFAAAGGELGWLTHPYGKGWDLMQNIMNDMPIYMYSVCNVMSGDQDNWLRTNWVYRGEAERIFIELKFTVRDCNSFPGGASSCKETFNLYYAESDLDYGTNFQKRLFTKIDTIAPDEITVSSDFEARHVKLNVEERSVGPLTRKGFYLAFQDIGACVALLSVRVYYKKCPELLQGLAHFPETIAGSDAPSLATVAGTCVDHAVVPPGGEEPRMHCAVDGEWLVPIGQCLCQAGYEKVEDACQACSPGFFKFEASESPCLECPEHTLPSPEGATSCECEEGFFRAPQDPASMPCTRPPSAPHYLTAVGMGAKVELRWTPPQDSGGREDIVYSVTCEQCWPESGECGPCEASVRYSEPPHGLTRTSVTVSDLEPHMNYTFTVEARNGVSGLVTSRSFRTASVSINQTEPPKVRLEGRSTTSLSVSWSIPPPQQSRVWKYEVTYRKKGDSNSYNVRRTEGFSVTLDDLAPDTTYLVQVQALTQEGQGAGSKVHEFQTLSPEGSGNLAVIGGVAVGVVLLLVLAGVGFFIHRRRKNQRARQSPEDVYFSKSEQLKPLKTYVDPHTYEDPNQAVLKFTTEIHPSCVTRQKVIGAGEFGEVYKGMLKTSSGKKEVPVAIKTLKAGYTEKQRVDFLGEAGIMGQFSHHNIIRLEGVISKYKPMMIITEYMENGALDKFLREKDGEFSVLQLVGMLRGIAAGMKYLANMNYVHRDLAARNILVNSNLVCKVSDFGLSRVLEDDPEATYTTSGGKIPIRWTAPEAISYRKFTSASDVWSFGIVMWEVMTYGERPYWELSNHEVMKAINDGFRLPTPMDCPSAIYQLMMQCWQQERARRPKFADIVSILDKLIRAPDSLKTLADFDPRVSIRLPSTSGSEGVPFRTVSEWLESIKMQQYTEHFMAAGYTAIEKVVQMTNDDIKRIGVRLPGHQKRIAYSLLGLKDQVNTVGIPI

Row | EphA2 phosphorylation in EphA2-overexpressing MDA-MB-231 cells; receptor interna [1] | Structure (SMILES) | EphA2 phosphorylation and internalization in MDA-MB-231 cells (positive control, [2]
1 | ~ 0.4 μM | COc1cc2nc(N3CCN(C(=O)CCCCCCCCCCC(=O)N4CCN(c5nc(N)c6cc(OC)c(OC)cc6n5)CC4)CC3)nc(N)c2cc1OC [compound 27, 1,12-bis(4-(4-amino-6,7-dimethoxyquinazolin-2-yl)piperazin-1-yl)dodecane-1,12-dione] | –
2 | – | COc1cc2nc(N3CCN(C(=O)C4COc5ccccc5O4)CC3)nc(N)c2cc1OC (centres unmarked) [Doxazosin, 2-[4-(2,3-Dihydro-1,4-benzodioxine-2-carbonyl)piperazin-1-yl]-6,7-dimethoxyquinazolin-4-amine] | ~ 50 μM
